Measurements taken from ChEMBL document CHEMBL6103654, “Design, Biological Characterization, and Discovery of Capromorelin Derivatives as Oral Growth Hormone Secretagogue Receptor Type 1a Agonist for the Treatment of Growth Hormone Deficiency” (J Med Chem, 2025).
The source made the active and inactive calls. No cut-off for these calls is given here.

Experiments:
[1] = AUC in male Sprague-Dawley rat at 2 mg/kg, po administered as single dose measured after 4 hrs; type: ADME, organism-based; details: in vivo
[2] = molecular target: Cytochrome P450 2D6 (Homo sapiens, UniProt P10635); assay: Inhibition of CYP2D6 in human liver microsome incubated for 5 min in presence of NADPH by UPLC-MS/MS analysis; type: ADME, microsomes
Chain of Cytochrome P450 2D6 (P10635 whole entry): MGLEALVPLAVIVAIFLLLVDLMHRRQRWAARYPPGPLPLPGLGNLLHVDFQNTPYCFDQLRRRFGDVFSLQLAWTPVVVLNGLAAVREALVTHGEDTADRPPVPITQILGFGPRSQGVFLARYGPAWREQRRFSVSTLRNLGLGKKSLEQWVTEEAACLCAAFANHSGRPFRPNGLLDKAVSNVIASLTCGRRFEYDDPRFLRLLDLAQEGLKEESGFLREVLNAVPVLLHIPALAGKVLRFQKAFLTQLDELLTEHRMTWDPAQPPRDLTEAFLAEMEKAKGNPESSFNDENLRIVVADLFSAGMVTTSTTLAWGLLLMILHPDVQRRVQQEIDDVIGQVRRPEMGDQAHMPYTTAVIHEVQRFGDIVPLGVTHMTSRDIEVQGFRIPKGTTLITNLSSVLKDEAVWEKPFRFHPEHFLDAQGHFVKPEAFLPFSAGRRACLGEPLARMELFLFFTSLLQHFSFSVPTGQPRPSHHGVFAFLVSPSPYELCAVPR

[3] = system: Rattus norvegicus; assay: Induction of growth hormone level in adult Sprague-Dawley rat blood at 0.2 mg/kg, po administered as single dose measured after 20 mins by ELISA method (reference value: 4.9+/-1.1 ng/mL); type: functional
[4] = system: Rattus norvegicus; assay: Induction of growth hormone level in adult Sprague-Dawley rat blood at 0.2 mg/kg, po administered as single dose measured after 40 mins by ELISA method (reference value: 14.4+/-6.9 ng/mL); type: functional
[5] = system: Rattus norvegicus; assay: Induction of growth hormone level in Juvenile Sprague-Dawley rat blood at 0.5 mg/kg, po administered as single dose measured after 2 hrs by ELISA method (reference value: 26.5+/-7.3 ng/mL); type: functional
[6] = Volume of distribution in male Sprague-Dawley rat at 1 mg/kg, iv administered as single dose measured after 4 hrs; type: ADME, organism-based; details: in vivo
[7] = system: Rattus norvegicus; assay: Induction of growth hormone level in 4 week-old female Sprague-Dawley rat assessed as increase in body weight at 2.5 mg/kg, po measured after 10 days; type: functional, organism-based; details: time 10.0 day
[8] = system: Rattus norvegicus; assay: Induction of growth hormone level in 4 week-old male Sprague-Dawley rat assessed as increase in body weight at 2.5 mg/kg, po measured after 10 days; type: functional, organism-based; details: time 10.0 day
[9] = system: Rattus norvegicus; assay: Induction of growth hormone level in 6 week-old female Sprague-Dawley rat assessed as increase in body weight at 2.5 mg/kg, po measured after 10 days; type: functional, organism-based; details: time 10.0 day
[10] = molecular target: Voltage-gated inwardly rectifying potassium channel KCNH2 (Homo sapiens, UniProt Q12809); assay: Inhibition of human ERG expressed in HEK293 cells by patch clamp assay; type: toxicity, cell-based
Chain of Voltage-gated inwardly rectifying potassium channel KCNH2 (Q12809 whole entry): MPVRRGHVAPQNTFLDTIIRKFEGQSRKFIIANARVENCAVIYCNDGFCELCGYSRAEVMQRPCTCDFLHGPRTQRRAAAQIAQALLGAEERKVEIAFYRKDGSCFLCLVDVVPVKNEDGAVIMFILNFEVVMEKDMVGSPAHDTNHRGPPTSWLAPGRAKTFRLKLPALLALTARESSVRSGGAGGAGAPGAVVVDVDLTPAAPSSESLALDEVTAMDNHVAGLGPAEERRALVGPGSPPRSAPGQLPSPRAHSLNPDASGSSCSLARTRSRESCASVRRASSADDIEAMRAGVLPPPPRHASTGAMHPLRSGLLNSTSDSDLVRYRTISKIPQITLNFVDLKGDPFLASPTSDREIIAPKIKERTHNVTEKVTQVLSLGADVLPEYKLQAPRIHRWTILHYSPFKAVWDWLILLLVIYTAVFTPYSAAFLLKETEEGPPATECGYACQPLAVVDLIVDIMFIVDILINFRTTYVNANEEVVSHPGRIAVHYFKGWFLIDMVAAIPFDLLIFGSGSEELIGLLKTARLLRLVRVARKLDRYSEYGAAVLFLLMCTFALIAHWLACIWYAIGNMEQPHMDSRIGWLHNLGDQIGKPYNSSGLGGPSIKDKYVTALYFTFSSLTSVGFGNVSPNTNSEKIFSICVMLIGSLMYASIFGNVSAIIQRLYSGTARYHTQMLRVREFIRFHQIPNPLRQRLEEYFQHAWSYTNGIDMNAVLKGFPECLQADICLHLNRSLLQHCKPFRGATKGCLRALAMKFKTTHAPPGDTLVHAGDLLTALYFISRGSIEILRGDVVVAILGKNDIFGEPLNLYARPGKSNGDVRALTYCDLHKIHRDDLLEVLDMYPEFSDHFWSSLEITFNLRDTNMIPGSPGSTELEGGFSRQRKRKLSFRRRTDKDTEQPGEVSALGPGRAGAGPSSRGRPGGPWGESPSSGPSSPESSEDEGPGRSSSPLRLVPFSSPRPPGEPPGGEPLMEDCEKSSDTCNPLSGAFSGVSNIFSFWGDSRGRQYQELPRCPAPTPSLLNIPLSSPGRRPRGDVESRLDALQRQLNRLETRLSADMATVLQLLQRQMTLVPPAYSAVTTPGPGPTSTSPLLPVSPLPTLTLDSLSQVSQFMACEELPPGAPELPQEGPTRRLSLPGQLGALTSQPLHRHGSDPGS

[11] = Plasma protein binding in dog assessed as unbound fraction measured after 6 hrs by dialysis method; type: ADME, cell-free, Canis lupus familiaris
[12] = system: Rattus norvegicus; assay: Induction of growth hormone level in Juvenile Sprague-Dawley rat blood at 0.5 mg/kg, po administered as single dose measured after 40 mins by ELISA method (reference value: 40.1+/-11.0 ng/mL); type: functional
[13] = system: Rattus norvegicus; assay: Induction of growth hormone level in Juvenile Sprague-Dawley rat blood at 0.2 mg/kg, po administered as single dose measured immediately by ELISA method (reference value: 28.5+/-8.7 ng/mL); type: functional
[14] = Elimination half life in male Sprague-Dawley rat at 2 mg/kg, po administered as single dose measured after 4 hrs; type: ADME, organism-based; details: in vivo, read-out: beta t1/2 (converted)
[15] = system: Rattus norvegicus; assay: Induction of growth hormone level in Juvenile Sprague-Dawley rat blood at 0.5 mg/kg, po administered as single dose measured immediately by ELISA method (reference value: 28.5+/-8.7 ng/mL); type: functional
[16] = system: Rattus norvegicus; assay: Induction of growth hormone level in Juvenile Sprague-Dawley rat blood at 0.5 mg/kg, po administered as single dose measured after 1 hr by ELISA method (reference value: 45.2+/-12.5 ng/mL); type: functional
[17] = system: Rattus norvegicus; assay: Induction of growth hormone level in 6 week-old female Sprague-Dawley rat assessed as increase in body length at 2.5 mg/kg, po measured after 10 days; type: functional, organism-based; details: time 10.0 day
[18] = Half life in male mouse at 1 mg/kg, iv administered as single dose measured after 4 hrs; type: ADME, organism-based; details: in vivo
[19] = system: Rattus norvegicus; assay: Induction of growth hormone level in Juvenile Sprague-Dawley rat blood at 0.1 mg/kg, po administered as single dose measured after 2 hrs by ELISA method (reference value: 26.5+/-7.3 ng/mL); type: functional
[20] = molecular target: Growth hormone secretagogue receptor type 1 (Rattus norvegicus, UniProt O08725); assay: Agonist activity at rat GHSR expressed in CHO cells incubated for 60 min by FLIPR assay; type: functional, cell-based
Chain of Growth hormone secretagogue receptor type 1 (O08725 whole entry): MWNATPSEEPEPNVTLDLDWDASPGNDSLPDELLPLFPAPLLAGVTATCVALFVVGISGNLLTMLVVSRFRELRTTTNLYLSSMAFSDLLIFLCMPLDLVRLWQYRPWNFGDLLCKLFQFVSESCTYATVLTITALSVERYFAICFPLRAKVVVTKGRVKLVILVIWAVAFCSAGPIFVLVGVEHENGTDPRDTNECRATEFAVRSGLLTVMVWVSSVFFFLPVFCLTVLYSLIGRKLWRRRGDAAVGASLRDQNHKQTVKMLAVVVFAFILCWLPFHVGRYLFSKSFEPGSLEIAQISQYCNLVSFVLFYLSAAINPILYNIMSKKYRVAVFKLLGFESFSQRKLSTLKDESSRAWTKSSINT

[21] = system: Rattus norvegicus; assay: Induction of growth hormone level in Juvenile Sprague-Dawley rat blood at 0.1 mg/kg, po administered as single dose measured after 10 mins by ELISA method (reference value: 23.2+/-5.6 ng/mL); type: functional
[22] = Genotoxicity in Salmonella typhimurium TA100 by Ames test; type: toxicity; details: salmonella enterica subsp. enterica serovar typhimurium
[23] = system: CHO; assay: Agonist activity at monkey GHSR expressed in CHO cells at maximum concentration incubated for 60 min by FLIPR assay relative to control; type: cell-based; details: Macaca mulatta, filed as agonist
[24] = Genotoxicity in Salmonella typhimurium TA98 by Ames test; type: toxicity; details: salmonella enterica subsp. enterica serovar typhimurium
[25] = Half life in male monkey at 2 mg/kg, po administered as single dose measured after 4 hrs; type: ADME, organism-based, Macaca mulatta; details: rhesus monkey, in vivo
[26] = system: Rattus norvegicus; assay: Induction of growth hormone level in Juvenile Sprague-Dawley rat blood at 0.2 mg/kg, po administered as single dose measured after 2 hrs by ELISA method (reference value: 26.5+/-7.3 ng/mL); type: functional
[27] = system: Rattus norvegicus; assay: In vivo agonist activity at GSHR in Sprague-Dawley rat assessed as increase in body weight at 10 to 100 mg/kg, po administered once daily for 14 days; type: functional, organism-based; details: dose 10-100 mg/kg, time 14.0 day
[28] = Plasma protein binding in rat assessed as unbound fraction measured after 6 hrs by dialysis method; type: ADME, cell-free
[29] = Tmax in male dog at 2 mg/kg, po administered as single dose measured after 4 hrs; type: ADME, organism-based, Canis lupus familiaris; details: in vivo
[30] = system: Rattus norvegicus; assay: Induction of growth hormone level in Juvenile Sprague-Dawley rat blood at 0.5 mg/kg, po administered as single dose measured after 20 mins by ELISA method (reference value: 29.1+/-8.6 ng/mL); type: functional
[31] = system: Rattus norvegicus; assay: Induction of growth hormone level in 6 week-old male Sprague-Dawley rat assessed as increase in body weight at 2.5 mg/kg, po measured after 10 days; type: functional, organism-based; details: time 10.0 day
[32] = Metabolic stability in human liver microsome assessed as half life at 1 uM measured upto 60 mins in presence of NADPH by LC-MS/MS analysis; type: ADME; details: liver microsomes
[33] = molecular target: Cytochrome P450 2C19 (Homo sapiens, UniProt P33261); assay: Inhibition of CYP2C19 in human liver microsome incubated for 5 min in presence of NADPH by UPLC-MS/MS analysis; type: ADME, microsomes
Chain of Cytochrome P450 2C19 (P33261 whole entry): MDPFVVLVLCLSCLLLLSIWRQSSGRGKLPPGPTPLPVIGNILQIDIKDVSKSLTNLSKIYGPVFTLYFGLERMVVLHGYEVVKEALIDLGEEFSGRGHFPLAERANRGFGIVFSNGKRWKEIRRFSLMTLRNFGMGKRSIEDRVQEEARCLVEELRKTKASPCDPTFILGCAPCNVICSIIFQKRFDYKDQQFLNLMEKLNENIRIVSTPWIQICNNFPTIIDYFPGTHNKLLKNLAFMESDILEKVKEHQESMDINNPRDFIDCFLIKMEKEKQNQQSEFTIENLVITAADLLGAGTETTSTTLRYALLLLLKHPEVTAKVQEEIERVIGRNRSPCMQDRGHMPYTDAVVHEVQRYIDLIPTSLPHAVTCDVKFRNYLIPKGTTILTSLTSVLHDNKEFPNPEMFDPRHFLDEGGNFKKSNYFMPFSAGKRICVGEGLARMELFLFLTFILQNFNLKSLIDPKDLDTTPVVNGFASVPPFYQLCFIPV

[34] = Metabolic stability in rat liver microsome assessed as half life at 1 uM measured upto 60 mins in presence of NADPH by LC-MS/MS analysis; type: ADME; details: liver microsomes
[35] = Toxicity in Sprague-Dawley rat liver assessed as change in central veins at 10 to 100 mg/kg, po administered once daily for 14 days; type: organism-based; details: in vivo, 336 h, dose 10-100 mg/kg, time 14 day
[36] = Metabolic stability in mouse liver microsome assessed as intrinsic clearance at 1 uM measured upto 60 mins in presence of NADPH by LC-MS/MS analysis; type: ADME; details: liver microsomes, read-out: CLH
[37] = system: Rattus norvegicus; assay: Induction of growth hormone level in adult Sprague-Dawley rat blood at 0.2 mg/kg, po administered as single dose measured after 10 mins by ELISA method (reference value: 13.7+/-7.2 ng/mL); type: functional

CC(C)(N)C(=O)N[C@H](COCc1ccccc1)C(=O)N1CCC2=NN(C3CC3)C(=O)[C@]2(Cc2ccccc2)C1
AUC at 4 h [1]: 188 ng·h/mL | IC50 [2]: > 30 µM | Activity [3]: 73.2 ng/mL | Activity [4]: 26 ng/mL | Activity [5]: 34.4 ng/mL | Vd [6]: 2.65 L/kg | Activity [7]: Active | Activity [8]: Active | Activity [9]: Active | IC50 [10]: > 30 µM | fraction unbound at 6 h [11]: 0.563 | Activity [12]: 74.6 ng/mL | Activity [13]: 33.4 ng/mL | half-life [14]: 166 min | Activity [15]: 42.8 ng/mL | Activity [16]: 27.2 ng/mL | Activity [17]: Active | half-life [18]: 16.2 min | Activity [19]: 36.7 ng/mL | EC50 [20]: 7 pM | Activity [21]: 168.5 ng/mL | Activity [22]: Non-toxic | Activity [23]: 106% | Activity [24]: Non-toxic | half-life [25]: 61.2 min | Activity [26]: 32.3 ng/mL | Activity [27]: Active | fraction unbound at 6 h [28]: 0.673 | Tmax [29]: 25.2 min | Activity [30]: 223.2 ng/mL | Activity [31]: Active | half-life at 1 µM [32]: 11.3 min | IC50 [33]: > 30 µM | half-life at 1 µM [34]: 9.9 min | Activity [35]: Non-toxic | microsomal CLint at 1 µM [36]: 330 µL/min/mg | Activity [37]: 228.6 ng/mL
